Reference: US11453640B2, “Small molecules for disrupting the super elongation complex and inhibiting transcription elongation for cancer therapy” (NORTHWESTERN UNIVERSITY, priority 2018, dated 2022)

What was measured:
ELL2 = assay: Western blotting of ELL2 protein levels in 293T cells; type: cell-based, human; settings: 20 μM, 6 hr
From the text: FIG. 10, related to FIG. 3. Disruption of SEC phenocopies slow Pol II mutants and reduces Pol II processivity. (A) Identification of the 1,057 genes with typical Pol II termination signals around the TES. Pol II signals from WT Pol II mutant expressing cells were K-means clustered into 5 groups with a window of 15 kb around the TES. The expressing genes from clusters with a typical Pol II termination signals were selected and plotted. (B) SEC inhibitor treatments of the WT Pol II mutant expressing cells lead to a Pol II phenotype similar to slower Pol II mutant expressing cells as viewed at the 3′-end of genes. (C-D) Time-dependent and dose-dependent shift of Pol II signals around the TES sites by KL-2 treatment (N=1,057). (E) Genome browser tracks of Serine 2 phosphorylated (Ser2P) Pol II at the SRSF1 gene in HEK293T cells treated with vehicle or SEC inhibitors. SEC inhibitor treatments result in increased Pol II occupancy at the promoter-proximal region and increased occupancy of Ser2P Pol II in the gene body. […] (H) SEC inhibition results in decreased protein levels of the SEC subunit ELL2. 293T cells were treated with 20 μM of the indicated inhibitors for 6 hr before harvesting cells for western blotting. (I-K) Depletion of ELL2 in HEK293T cells (I) results in apparent early termination of Pol II with reduced Pol II occupancy downstream of the PIM3 (J) and ACTB (K) annotated TES. […]

Pol II = Pol II ChIP-seq, promoter-proximal pausing in HEK293T cells; type: cell-based, human
Protocol: FIG. 2. Small molecule disruption of SEC increases promoter-proximal pausing. (A) SEC inhibitors increase Pol II occupancy near the transcription start sites (TSS) of the HSPA8 and SRSF4 genes. Pol II ChIP-seq was performed in HEK293T cells with 20 μM SEC inhibitors KL-1 and KL-2 for 6 hr. […] (B) Heatmap analysis of Pol II occupancy at SEC-occupied genes in cells treated with KL-1 and KL-2. SEC inhibition results in increased Pol II occupancy at promoter-proximal regions of genes occupied by SEC. Rows are sorted by Pol II occupancy in the DMSO condition and metaplots of Pol II occupancy are shown at the bottom. Corresponding AFF1 and AFF4 occupancy (rpm) in the vehicle-treated condition is shown. […] The pausing index is calculated based on the ratio of Pol II occupancy around the TSS to Pol II occupancy in the gene body. […]
Chromatin Immunoprecipitation Sequencing. […] ChIP-seq reads were aligned to the Drosophila genome (UCSC dm3) or human genome (UCSC hgl9). Alignments were processed with Bowtie version 1.1.2, allowing only uniquely mapping reads with up to two mismatches within the 50 bp read. The resulting reads were extended to 150 bp toward the interior of the sequenced fragment and normalized to total reads aligned (reads per million, r.p.m.). […] P-values were calculated with a two-sided Kolmogorov-Smirnov test. […]

[1] = Toxicity test in mice (body weight, sickness); type: in vivo; settings: 5 doses of 50 mg/kg, monitored 35 days
Protocol: FIG. 14, related to FIG. 7. SEC disruptors delay tumor progression and improve survival of MDA231-LM2 tumor mice. (A) KL-1 and KL-2 inhibit the colony formation of MDA231-LM2 cells in vitro. 5×10^3 MDA231-LM2 cells were seeded in 6-well plates and treated with KL-1 or KL-2 at the indicated doses for 5 days. Crystal violet staining was performed to stain the colonies. (B) KL-1 and KL-2 induce apoptosis in MDA231-LM2 cells. Bar graph depiction of Annexin V positive MDA231-LM2 cells after 24 hr of KL-1 and KL-2 treatments at the indicated concentrations. Data are represented as Mean+/−SD. […] Each individual line indicates the weights of each mouse during toxicity test.

Compound: COc1cccc(C(=O)CC(=O)C(=O)Nc2cc(Cl)ccc2C)c1 [KL-1, N-(5-chloro-2-methylphenyl)-4-oxo-4-(3-methoxyphenyl)-2-oxobutanamide]
- ELL2 protein levels (ELL2): led to reduced ELL2 protein levels
- promoter-proximal pausing (pausing index, ECDF) (Pol II): could increase promoter-proximal pausing
- Pol II occupancy at promoter-proximal regions (Pol II; 20 μM, 6 hr, HSPA8 and SRSF4 loci): increased Pol II occupancy at the promoter-proximal regions
- weight loss in mice ([1]; intraperitoneal): does not result in significant weight loss
- sign of sickness in mice [1]: no obvious sign of sickness was observed
